# According to ChEMBL document CHEMBL1201862, “PubChem BioAssay data set” (2004):
# Activity calls are given as the source filed them.
# What was measured:
# [1] = test system: Streptococcus sp. 'group A'; test: growth inhibition of control SK(-) GAS strain, dose response, counter-screen for streptokinase expression inhibitor project, luminescence, kanamycin, BacTiterGlo, confirmation (AID 1900); format: functional, organism-based
# [2] = A cytotoxicity screen of small molecule inhibitors of the PhoP region in Salmonella typhi identified in the primary screen. [Related pubchem assays: 1850, 1864, 1985 ]; format: functional
# [3] = test system: Streptococcus; test: Group A Streptococcus viability loss, dose response, counter-screen for streptokinase expression inhibitor project, luminescence, BacTiterGlo (AID 1915); format: functional, organism-based;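 also: potency for reduction of bacterial viability or growth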
# [4] = biological target: Beta-galactosidase (Escherichia coli, UniProt Q8VNN2); test: beta-galactosidase enzyme inhibitors and activators, dose response, artefact control for CCR6 antagonist project, biochemical, E. coli enzyme, set 3 (AID 504712); format: functional
# [5] = biological target: T1, Short transient receptor potential channel 4 (Mus musculus, UniProt Q9QUQ5); test: mouse TRPC4 channel activators, dose response, cell-based, HEK293 TRPC4/mu-opioid, Fluo-4 calcium (AID 434937); format: functional
# T1 sequence (Q9QUQ5 whole entry): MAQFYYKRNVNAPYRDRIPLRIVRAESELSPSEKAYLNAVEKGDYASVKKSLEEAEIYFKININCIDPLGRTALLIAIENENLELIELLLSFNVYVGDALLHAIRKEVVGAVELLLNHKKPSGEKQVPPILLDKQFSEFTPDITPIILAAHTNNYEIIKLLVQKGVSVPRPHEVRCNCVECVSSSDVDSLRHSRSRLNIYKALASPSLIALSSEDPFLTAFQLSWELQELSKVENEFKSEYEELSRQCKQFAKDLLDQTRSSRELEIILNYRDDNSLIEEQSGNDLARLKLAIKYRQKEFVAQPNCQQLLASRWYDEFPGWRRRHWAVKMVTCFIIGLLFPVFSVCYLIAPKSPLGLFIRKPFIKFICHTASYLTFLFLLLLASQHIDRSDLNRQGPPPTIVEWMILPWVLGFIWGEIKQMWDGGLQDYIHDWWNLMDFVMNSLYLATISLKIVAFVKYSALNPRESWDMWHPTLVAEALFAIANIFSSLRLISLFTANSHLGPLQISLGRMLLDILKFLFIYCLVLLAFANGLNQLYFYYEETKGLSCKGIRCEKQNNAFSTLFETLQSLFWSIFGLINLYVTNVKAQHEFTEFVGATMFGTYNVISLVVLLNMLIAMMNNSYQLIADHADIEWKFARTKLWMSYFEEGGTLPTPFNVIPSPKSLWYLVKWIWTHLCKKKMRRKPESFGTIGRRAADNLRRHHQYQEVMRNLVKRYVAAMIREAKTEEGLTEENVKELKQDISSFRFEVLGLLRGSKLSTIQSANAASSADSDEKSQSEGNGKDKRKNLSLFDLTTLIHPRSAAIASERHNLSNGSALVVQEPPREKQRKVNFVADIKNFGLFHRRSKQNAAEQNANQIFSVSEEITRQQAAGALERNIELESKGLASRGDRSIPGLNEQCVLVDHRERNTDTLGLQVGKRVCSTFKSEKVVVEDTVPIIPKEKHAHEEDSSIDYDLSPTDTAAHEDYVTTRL
# [6] = biological target: T1, Short transient receptor potential channel 4; test: TRPC4 positive allosteric modulators, dose response, cell-based, HEK293 TRPC4/mu-opioid, Fluo-4 calcium, EC20 DAMGO (AID 434941); format: functional
# [7] = biological target: DNA dC->dU-editing enzyme APOBEC-3A (Homo sapiens, UniProt P31941); test: APOBEC3A DNA deaminase inhibitors, dose response, biochemical (AID 504722); format: functional
# [8] = M. tuberculosis growth inhibition, HTS (AID 449762); format: functional
# [9] = biological target: DNA dC->dU-editing enzyme APOBEC-3G (Homo sapiens, UniProt Q9HC16); test: Dose Response confirmation of small molecule APOBEC3G DNA Deaminase Inhibitors via a fluorescence-based single-stranded DNA deaminase assay. [Related pubchem assays (depositor defined):AID493012, AID493028]; format: functional
# [10] = biological target: Trypsin (Sus scrofa, UniProt P00761); test: porcine trypsin inhibitors, dose response, selectivity assay for Rce1 protease inhibitor project, biochemical, quenched peptide fluorescence, cherry-pick (AID 488789)
# [11] = biological target: Eukaryotic translation initiation factor 4E (Mus musculus, UniProt P63073); test: eIF4E–eIF4G protein interaction inhibitors, dose response, biochemical, TR-FRET (AID 855); format: functional;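 also: potency for disrupting eIF4E binding to eIF4GI seen as loss of FRET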
# [12] = inhibitors of intracellular T. cruzi replication, confirmation, NIH3T3 host cells, beta-gal luminescence (AID 2044); format: functional, cell-based;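 also: intracellular parasites grown in NIH/3T3 mouse fibroblasts as host cells; luminescent beta-galactosidase reporter signal from transgenic T. cruzi replicating inside host cells; inhibitors lower the luminescence signal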
# [13] = cytotoxicity toward NIH3T3 fibroblasts, dose response, counter-screen, cell-based, ATP luminescence, mouse fibroblasts (AID 2010); format: functional;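 also: cells exposed to compound for about 90 hours before reading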
# [14] = biological target: Hexokinase (Trypanosoma brucei, UniProt Q38C41); test: Confirmation assay for inhibitors of Trypanosoma brucei hexokinase 1-Analogue-first series. [Related pubchem assays (depositor defined):AID1430, AID1632, AID2516, AID2560, AID2579, AID2600, AID449725, AID492951]; format: functional
# [15] = test system: HEK293; test: cells; format: functional, cell-based; settings: Homo sapiens
# [16] = test system: HEK293; test: cells; format: functional, cell-based; settings: Homo sapiens; remark: listed apart in the source
# [17] = test system: HEK293; test: NOD2 signaling inhibitors in MDP-stimulated cells, cell-based, uHTS, luminescence (AID 2001); format: functional; settings: Homo sapiens
# [18] = test system: HEK293; test: cells; format: functional, cell-based; settings: Homo sapiens; remark: listed apart in the source
# [19] = test system: HEK293; test: NOD1 signaling inhibitors, primary screen, cell-based, luminescence, uHTS (AID 1578); format: functional; settings: Homo sapiens
# [20] = biological target: Nucleotide-binding oligomerization domain-containing protein 2 (Homo sapiens, UniProt Q9HC29); test: NOD2 signaling inhibitors, cell-based, luminescence, uHTS, HEK293 (AID 1566); format: functional
# [21] = biological target: Eukaryotic translation initiation factor 4H (Homo sapiens, UniProt Q15056); test: human eIF4H binding inhibitors, primary screen, translation initiation inhibitor project, biochemical, uHTS, fluorescence polarization (AID 2012)
# [22] = biological target: T2, Carboxy-terminal domain RNA polymerase II polypeptide A small phosphatase 1 (Homo sapiens, UniProt Q9GZU7); test: inhibitors of CTDSP1, concentration-response testing, biochemical assay, absorbance-based, actives from ultra-high-throughput screening (AID 540297); format: functional
# T2 sequence (Q9GZU7 whole entry): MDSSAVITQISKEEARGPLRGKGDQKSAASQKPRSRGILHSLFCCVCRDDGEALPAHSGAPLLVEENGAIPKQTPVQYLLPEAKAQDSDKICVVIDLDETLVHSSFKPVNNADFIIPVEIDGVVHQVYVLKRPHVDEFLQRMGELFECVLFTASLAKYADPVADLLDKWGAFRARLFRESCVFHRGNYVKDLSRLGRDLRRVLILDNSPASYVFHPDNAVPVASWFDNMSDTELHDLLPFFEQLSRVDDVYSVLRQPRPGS
# [23] = biological target: Polyadenylate-binding protein 1 (Homo sapiens, UniProt P11940); test: PABP poly(A) RNA binding inhibitors, primary screen, biochemical, fluorescence polarization, uHTS (AID 2014)
# [24] = biological target: T3, Eukaryotic translation initiation factor 2-alpha kinase 3 (Homo sapiens, UniProt Q9NZJ5); test: Counterscreen assay for PERK inhibitors: Dose response cell-based high throughput screening assay to measure inhibition of PERK at 6 hours. [Related pubchem assays: 1522, 1416 ]; format: functional
# T3 sequence (Q9NZJ5 whole entry): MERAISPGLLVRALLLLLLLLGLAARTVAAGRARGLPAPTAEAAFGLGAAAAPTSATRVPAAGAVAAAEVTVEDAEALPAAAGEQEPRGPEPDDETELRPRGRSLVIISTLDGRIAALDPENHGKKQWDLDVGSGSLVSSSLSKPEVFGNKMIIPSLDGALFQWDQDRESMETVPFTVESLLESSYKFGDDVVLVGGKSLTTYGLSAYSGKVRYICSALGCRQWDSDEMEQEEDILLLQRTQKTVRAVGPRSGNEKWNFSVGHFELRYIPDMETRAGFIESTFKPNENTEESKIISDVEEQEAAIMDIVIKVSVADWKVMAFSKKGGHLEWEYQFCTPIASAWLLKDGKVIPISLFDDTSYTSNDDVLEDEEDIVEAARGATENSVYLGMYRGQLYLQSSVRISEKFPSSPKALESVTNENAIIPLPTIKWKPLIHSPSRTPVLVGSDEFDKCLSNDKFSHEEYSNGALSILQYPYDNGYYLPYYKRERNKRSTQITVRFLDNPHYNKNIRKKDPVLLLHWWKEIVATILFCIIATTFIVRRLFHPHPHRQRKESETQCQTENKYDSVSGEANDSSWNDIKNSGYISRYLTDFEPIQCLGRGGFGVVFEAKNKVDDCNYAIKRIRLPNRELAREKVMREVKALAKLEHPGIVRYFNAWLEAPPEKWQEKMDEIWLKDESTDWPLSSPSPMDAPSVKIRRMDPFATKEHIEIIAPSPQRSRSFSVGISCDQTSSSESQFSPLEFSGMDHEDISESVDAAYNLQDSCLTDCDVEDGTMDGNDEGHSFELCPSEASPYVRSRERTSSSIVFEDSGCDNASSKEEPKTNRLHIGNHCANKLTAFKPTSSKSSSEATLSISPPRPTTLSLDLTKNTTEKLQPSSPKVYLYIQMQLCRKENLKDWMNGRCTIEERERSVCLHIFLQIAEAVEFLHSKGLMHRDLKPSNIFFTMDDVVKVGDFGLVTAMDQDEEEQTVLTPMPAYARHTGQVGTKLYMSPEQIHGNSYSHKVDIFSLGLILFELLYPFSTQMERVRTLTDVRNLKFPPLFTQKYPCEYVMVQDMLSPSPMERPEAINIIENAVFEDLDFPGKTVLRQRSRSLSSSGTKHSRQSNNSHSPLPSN
# [25] = biological target: T3, Eukaryotic translation initiation factor 2-alpha kinase 3; test: Dose response cell-based high-throughput screening assay to measure PERK inhibition. [Related pubchem assays: 1416 ]; format: functional
# [26] = biological target: T4, Rac GTPase-activating protein 1 (Homo sapiens, UniProt Q9H0H5); test: MgcRacGAP GTPase-activating activity inhibitors, confirmation, biochemical, ADP Hunter fluorescence, primary and confirmatory (AID 624330); format: functional
# T4 sequence (Q9H0H5 whole entry): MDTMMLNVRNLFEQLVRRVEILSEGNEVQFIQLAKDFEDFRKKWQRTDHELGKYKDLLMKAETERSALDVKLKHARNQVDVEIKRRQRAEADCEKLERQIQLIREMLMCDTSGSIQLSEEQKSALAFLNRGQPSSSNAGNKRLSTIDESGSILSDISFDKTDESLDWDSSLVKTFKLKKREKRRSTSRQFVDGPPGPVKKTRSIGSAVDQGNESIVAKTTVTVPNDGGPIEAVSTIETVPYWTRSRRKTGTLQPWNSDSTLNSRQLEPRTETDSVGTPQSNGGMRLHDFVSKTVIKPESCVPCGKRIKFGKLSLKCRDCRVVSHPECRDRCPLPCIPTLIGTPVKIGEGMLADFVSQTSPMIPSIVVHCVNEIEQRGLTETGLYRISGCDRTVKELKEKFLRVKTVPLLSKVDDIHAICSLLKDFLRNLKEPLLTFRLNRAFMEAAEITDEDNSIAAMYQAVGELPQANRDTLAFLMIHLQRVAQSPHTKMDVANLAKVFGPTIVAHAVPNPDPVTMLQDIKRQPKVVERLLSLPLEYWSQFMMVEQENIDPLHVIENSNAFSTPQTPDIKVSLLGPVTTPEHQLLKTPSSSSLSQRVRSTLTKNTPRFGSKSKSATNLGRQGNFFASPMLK
# Sequence of DNA dC->dU-editing enzyme APOBEC-3G (Q9HC16 whole entry): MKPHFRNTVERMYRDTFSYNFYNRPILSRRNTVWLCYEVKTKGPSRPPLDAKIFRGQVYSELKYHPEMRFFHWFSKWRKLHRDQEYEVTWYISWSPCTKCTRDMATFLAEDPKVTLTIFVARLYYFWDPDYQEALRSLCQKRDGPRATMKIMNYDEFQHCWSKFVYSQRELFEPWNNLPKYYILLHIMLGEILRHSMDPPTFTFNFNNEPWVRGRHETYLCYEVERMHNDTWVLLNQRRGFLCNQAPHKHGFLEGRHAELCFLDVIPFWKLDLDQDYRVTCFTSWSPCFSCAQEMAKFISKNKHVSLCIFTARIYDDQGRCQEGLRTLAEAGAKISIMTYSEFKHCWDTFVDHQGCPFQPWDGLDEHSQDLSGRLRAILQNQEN
# Sequence of DNA dC->dU-editing enzyme APOBEC-3A (P31941 whole entry): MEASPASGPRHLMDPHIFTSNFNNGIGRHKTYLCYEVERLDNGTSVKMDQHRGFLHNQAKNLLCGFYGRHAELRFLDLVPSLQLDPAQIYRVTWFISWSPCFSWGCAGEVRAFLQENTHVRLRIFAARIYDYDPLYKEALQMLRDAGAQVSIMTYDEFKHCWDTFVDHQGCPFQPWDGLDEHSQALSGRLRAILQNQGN
# Sequence of Beta-galactosidase (Q8VNN2 whole entry): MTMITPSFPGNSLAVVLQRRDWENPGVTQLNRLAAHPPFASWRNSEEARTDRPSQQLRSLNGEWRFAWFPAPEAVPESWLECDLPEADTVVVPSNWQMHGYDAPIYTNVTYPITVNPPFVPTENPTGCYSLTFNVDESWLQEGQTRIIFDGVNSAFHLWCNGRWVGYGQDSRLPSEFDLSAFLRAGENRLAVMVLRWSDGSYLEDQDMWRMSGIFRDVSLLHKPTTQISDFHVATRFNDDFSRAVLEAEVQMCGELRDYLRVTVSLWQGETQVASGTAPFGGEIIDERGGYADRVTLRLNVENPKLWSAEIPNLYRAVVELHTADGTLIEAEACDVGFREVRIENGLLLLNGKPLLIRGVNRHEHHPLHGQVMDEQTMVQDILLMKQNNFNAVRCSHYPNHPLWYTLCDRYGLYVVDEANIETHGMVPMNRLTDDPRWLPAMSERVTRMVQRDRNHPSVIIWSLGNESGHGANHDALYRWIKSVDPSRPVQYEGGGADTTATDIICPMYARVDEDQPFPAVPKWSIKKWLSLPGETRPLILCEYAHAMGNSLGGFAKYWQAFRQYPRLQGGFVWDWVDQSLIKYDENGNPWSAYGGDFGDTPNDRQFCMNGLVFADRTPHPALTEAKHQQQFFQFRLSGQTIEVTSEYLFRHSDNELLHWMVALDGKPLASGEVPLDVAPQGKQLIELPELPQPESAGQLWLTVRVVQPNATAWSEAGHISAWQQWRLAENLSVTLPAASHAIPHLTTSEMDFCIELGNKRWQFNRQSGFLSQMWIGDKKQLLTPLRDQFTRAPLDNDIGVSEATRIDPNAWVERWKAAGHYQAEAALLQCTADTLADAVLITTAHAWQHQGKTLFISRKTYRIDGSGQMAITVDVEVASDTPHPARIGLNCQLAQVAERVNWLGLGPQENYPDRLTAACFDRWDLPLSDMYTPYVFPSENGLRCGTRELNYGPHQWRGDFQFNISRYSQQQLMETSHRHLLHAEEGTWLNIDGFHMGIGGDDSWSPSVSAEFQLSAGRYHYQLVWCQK
# Sequence of Nucleotide-binding oligomerization domain-containing protein 2 (Q9HC29 whole entry, the tested form may be a part): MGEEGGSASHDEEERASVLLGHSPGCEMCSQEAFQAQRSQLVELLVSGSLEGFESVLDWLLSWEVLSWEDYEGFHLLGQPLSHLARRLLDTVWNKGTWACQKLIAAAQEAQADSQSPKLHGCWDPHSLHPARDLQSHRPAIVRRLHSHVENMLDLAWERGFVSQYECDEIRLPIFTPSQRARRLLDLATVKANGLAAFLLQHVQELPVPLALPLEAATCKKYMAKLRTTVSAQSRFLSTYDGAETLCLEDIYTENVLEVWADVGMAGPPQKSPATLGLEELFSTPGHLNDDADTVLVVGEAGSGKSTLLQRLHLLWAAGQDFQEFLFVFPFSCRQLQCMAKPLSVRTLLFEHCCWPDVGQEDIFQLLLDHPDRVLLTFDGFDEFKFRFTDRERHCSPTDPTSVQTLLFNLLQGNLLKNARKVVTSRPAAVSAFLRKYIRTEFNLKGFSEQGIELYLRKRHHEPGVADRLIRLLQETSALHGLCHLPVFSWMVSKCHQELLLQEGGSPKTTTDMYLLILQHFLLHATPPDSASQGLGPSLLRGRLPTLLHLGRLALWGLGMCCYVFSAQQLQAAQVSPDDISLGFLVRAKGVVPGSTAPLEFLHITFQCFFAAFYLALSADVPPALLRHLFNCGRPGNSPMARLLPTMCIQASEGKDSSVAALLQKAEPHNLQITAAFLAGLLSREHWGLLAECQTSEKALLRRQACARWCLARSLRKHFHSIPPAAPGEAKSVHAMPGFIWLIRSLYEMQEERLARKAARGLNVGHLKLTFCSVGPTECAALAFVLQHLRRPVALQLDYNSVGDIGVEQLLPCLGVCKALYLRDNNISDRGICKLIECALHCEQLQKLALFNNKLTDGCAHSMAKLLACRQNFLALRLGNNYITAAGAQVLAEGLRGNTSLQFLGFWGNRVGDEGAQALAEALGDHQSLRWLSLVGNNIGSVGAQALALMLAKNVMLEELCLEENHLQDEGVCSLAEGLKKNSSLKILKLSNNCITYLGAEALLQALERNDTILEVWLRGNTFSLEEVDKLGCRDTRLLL
# Sequence of Eukaryotic translation initiation factor 4E (P63073 whole entry): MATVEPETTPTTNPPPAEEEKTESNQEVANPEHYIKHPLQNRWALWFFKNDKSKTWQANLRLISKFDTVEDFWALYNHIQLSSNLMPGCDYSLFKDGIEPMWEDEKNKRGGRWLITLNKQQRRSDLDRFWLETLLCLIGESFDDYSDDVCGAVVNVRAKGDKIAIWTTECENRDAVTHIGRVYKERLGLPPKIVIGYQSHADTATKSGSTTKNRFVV
# Sequence of Hexokinase (Q38C41 whole entry): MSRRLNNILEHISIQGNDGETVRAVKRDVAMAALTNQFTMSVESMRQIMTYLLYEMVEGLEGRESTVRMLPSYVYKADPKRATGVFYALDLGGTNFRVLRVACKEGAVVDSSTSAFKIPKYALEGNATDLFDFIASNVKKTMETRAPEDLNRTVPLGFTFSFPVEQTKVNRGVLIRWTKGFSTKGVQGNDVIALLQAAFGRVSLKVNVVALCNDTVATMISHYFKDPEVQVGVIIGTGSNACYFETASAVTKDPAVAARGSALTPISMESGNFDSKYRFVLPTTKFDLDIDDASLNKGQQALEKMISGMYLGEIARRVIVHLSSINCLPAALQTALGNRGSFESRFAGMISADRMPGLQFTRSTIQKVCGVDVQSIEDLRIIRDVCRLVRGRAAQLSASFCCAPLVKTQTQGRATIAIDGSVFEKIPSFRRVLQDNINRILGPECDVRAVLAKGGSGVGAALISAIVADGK
# Sequence of Polyadenylate-binding protein 1 (P11940 whole entry): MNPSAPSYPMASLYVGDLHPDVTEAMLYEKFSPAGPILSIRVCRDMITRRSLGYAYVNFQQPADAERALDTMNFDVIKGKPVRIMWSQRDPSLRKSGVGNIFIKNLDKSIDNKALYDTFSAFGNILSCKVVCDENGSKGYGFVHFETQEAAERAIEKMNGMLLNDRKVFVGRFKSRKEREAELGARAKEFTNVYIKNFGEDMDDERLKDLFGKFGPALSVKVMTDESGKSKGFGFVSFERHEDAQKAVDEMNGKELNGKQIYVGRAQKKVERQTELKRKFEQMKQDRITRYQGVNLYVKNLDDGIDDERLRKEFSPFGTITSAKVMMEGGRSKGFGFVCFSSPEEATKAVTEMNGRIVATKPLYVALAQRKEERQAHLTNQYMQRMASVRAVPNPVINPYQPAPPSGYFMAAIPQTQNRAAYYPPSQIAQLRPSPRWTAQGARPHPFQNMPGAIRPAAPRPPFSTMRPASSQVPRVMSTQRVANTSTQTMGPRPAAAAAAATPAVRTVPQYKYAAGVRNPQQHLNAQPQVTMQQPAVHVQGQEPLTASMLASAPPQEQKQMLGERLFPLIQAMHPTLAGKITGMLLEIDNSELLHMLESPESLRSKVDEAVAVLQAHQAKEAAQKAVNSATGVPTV
# Sequence of Trypsin (P00761 whole entry): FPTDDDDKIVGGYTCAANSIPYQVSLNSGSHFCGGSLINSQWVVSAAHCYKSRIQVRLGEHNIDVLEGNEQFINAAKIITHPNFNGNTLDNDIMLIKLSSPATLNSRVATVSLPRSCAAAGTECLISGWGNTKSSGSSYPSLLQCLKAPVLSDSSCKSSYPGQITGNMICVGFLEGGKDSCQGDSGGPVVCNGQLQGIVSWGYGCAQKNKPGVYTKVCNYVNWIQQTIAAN
compound,measurement,setting,value
CCN(CC(=O)NC(C)(C)C)C(=O)COc1c(Cl)cc(Cl)c2ccc(C)nc12,EC50,[1],1.45 µM (active)
same,EC50,[2],> 50 µM (active)
same,EC50,[3],6.5 µM (active)
same,IC50,[4],> 66.6 µM (inactive)
CN(C)CCCOc1cccc(Cl)c1,EC50,[5],0.06 µM (active)
same,EC50,[6],0.03 µM (active)
Cc1nn(-c2ccccc2)c(S)c1/C=N/CCC/N=C/c1c(C)nn(-c2ccccc2)c1S,IC50,[7],> 100 µM (inactive)
same,IC50,[8],> 100 µM (active)
same,IC50,[9],5.47 µM (active)
COc1nc(-c2ccccc2)ccc1-c1noc(-c2ccccc2F)n1,AC50,[10],> 100 µM (inactive)
O=C1c2ccccc2C(=O)N1Cc1nc2ccccc2c(=O)n1-c1ccccn1,IC50,[11],> 64 µM (inactive)
O=C(NC1CCCCCCC1)c1ccc2c(c1)OCO2,IC50,[11],> 64 µM (inactive)
CC1Cc2ccccc2N1C(=O)CSc1nc2c(c(=O)n(C)c(=O)n2C)n1Cc1ccccc1 (stereo not given),EC50,[5],2.11 µM (active)
same,EC50,[6],0.15 µM (active)
same,EC50,[12],4.07 µM (active)
same,EC50,[13],> 60 µM (not active)
CCOC(=O)Cn1sc2ccccc2c1=O,IC50,[14],12.5 µM (active)
Cc1cc(OCC(=O)Nc2ccncc2)cc(C)c1Cl,IC50,[15],4.41 µM (active)
same,IC50,[16],12.3 µM (active)
same,IC50,[17],6.09 µM (active)
same,IC50,[18],> 20 µM (inactive)
same,EC50,[19],2.46 µM (active)
same,EC50,[20],8.48 µM (active)
O=S(=O)([O-])CCC[n+]1ccc(Oc2ccccc2)cc1,IC50,[21],48.3 µM (active)
same,IC50,[22],12.9 µM (active)
same,IC50,[23],4.32 µM (active)
CCCc1nc2ccccc2c(=O)n1N,EC50,[24],> 55.7 µM (not active)
same,EC50,[25],> 55.7 µM (not active)
Cc1ccc2c(c1C)NC(C)CC2C (stereo not given),EC50,[24],> 55.7 µM (not active)
same,EC50,[25],> 55.7 µM (not active)
COc1cccc(/C=N/n2c(S)nnc2-c2[nH]nc3c2CCC3)c1O,IC50,[7],> 100 µM (inactive)
same,IC50,[26],53.9 µM (active)
same,IC50,[9],2.48 µM (active)
CC(C)Cc1nnc(NC(=O)c2cc([N+](=O)[O-])ccc2N2CCOCC2)s1,IC50,[4],> 66.6 µM (inactive)
CCOc1ccc(-n2c(C)c(C(C)=O)c3cc(O)ccc32)cc1,IC50,[15],0.451 µM (active)
same,IC50,[16],> 20 µM (inactive)
same,IC50,[17],0.875 µM (active)
same,IC50,[18],> 20 µM (inactive)
same,EC50,[19],> 20 µM (inactive)
same,EC50,[20],> 20 µM (inactive)
